Structures are written as SMILES.

The results in this text go back to publication PMC9502272, “A Metabolomics Approach for Predicting OATP1B-Type Transporter-Mediated Drug–Drug Interaction Liabilities” (Pharmaceutics, 2022).

For this data set, the target named is T1, Oatp1b2 (Mus musculus, UniProt Q9JJL3).
T1 sequence (Q9JJL3 1-689): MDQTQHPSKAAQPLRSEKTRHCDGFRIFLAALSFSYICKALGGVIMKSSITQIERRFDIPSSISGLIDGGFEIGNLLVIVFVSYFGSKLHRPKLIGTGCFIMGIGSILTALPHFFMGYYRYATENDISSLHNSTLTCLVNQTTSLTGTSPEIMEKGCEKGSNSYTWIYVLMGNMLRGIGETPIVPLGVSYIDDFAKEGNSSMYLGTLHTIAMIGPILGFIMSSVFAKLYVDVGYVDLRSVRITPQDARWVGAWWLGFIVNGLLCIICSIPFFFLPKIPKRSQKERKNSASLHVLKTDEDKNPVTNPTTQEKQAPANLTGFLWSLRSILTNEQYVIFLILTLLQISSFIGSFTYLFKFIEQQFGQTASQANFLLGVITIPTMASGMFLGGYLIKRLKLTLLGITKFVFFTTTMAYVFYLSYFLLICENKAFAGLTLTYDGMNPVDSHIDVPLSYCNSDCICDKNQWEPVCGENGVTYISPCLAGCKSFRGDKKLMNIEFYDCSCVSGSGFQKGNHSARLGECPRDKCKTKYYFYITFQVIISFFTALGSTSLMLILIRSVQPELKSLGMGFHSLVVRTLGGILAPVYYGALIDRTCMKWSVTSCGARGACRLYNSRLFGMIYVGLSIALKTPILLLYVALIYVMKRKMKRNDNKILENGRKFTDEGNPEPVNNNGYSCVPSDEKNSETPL
Kind of data set: Untargeted metabolomics of plasma from untreated wild-type and Oatp1b2(−/−) mice. The note with it: for Fold of Change KO/WT: plasma of untreated Oatp1b2-deficient (KO) vs wild-type (WT) mice, semi-quantitative, positive = higher in KO, n = 6 per group; for Mean value KO: plasma of untreated Oatp1b2-deficient mice; for Mean value KO / Mean value WT: raw area counts rescaled to median = 1; for Mean value WT: plasma of untreated wild-type mice.

Description: For all experiments, age- and sex-matched mice (8–12 weeks old) were used. […] Mice with a deficiency of Oatp1b2 (Oatp1b2(−/−) mice), the single murine orthologue of OATP1B1 and OATP1B3 in humans, on a DBA/1LacJ background were kindly provided by Drs. Richard B. Kim (Western University, London, Ontario, Canada) and Jeffrey L. Stock (Pfizer, Groton, CT, USA).
Plasma samples from untreated wild-type mice and Oatp1b2(−/−) mice were analyzed for structurally named and unknown molecules using a non-targeted semi-quantitative liquid chromatography-tandem mass spectrometry (LC-MS/MS) and gas chromatography-mass spectrometry platforms (Metabolon, Durham, NC, USA). Compounds were identified by comparison with library entries of purified standards or recurrent unknown entities.

As to `O=C(O)[C@H]1OC(O)[C@H](O)[C@@H](O)[C@@H]1O` (mixture of isomers) [glucuronate], the “Fold of Change KO/WT” value is recorded as 3.17, the “Mean value KO” value was 1.59 and the “Mean value WT” value was “.500”.
As to `CCCCCCCCCCCCCCCC(=O)OC[C@H](COP(=O)([O-])OCC[N+](C)(C)C)OC(=O)CCCCCCCCCCCCCCC` [1,2-dipalmitoyl-GPC (16:0/16:0)], the “Fold of Change KO/WT” value is reported as 1.31, the “Mean value KO” value was 1.18 and the “Mean value WT” value is on record as “.901”.
With `CCCCCCCCCCCCCCCC(=O)OC[C@H](COP(=O)(O)OCCN)OC(=O)CCCCCCCCCCCCCCC` [1,2-dipalmitoyl-GPE (16:0/16:0)], the “Fold of Change KO/WT” value turned out to be 2.02, the “Mean value KO” value worked out at 1.34 and the “Mean value WT” value is reported as “.664”.
`CCCCCCCC/C=C\CCCCCC/C=C\OC[C@@H](O)COP(=O)(O)OCCN` [1-(1-enyl-oleoyl)-GPE (P-18:1)]: the “Fold of Change KO/WT” value came to 2.16, the “Mean value KO” value was determined as 1.45 and the “Mean value WT” value was “.672”.
For the compound `CCCCC/C=C\C/C=C\C/C=C\C/C=C\CCCC(=O)O[C@H](CO/C=C\CCCCCCCCCCCCCC)COP(=O)([O-])OCC[N+](C)(C)C` [1-(1-enyl-palmitoyl)-2-arachidonoyl-GPC (P-16:0/20:4)], the “Fold of Change KO/WT” value came out at 1.46, the “Mean value KO” value worked out at 1.30 and the “Mean value WT” value was “.891”.
`CCCCC/C=C\C/C=C\C/C=C\C/C=C\CCCC(=O)O[C@H](CO/C=C\CCCCCCCCCCCCCC)COP(=O)(O)OCCN` [1-(1-enyl-palmitoyl)-2-arachidonoyl-GPE (P-16:0/20:4)]: the “Fold of Change KO/WT” value was 1.34, the “Mean value KO” value was 1.13 and the “Mean value WT” value is given as “.839”.
Regarding `CCCCC/C=C\C/C=C\CCCCCCCC(=O)O[C@H](CO/C=C\CCCCCCCCCCCCCC)COP(=O)(O)OCCN` [1-(1-enyl-palmitoyl)-2-linoleoyl-GPE (P-16:0/18:2)], the “Fold of Change KO/WT” value is reported as 1.34, the “Mean value KO” value is 1.16 and the “Mean value WT” value is given as “.862”.
The matching figures for `CCCCCCCC/C=C\CCCCCCCC(=O)O[C@H](CO/C=C\CCCCCCCCCCCCCC)COP(=O)(O)OCCN` [1-(1-enyl-palmitoyl)-2-oleoyl-GPE (P-16:0/18:1)]: 1.32, 1.18 and “.895”.
`CCCCCCCCCCCCCC/C=C\OC[C@H](COP(=O)([O-])OCC[N+](C)(C)C)OC(=O)CCCCCCCCCCCCCCC` [1-(1-enyl-palmitoyl)-2-palmitoyl-GPC (P-16:0/16:0)]: the “Fold of Change KO/WT” value amounted to 1.24, the “Mean value KO” value came out at 1.14 and the “Mean value WT” value is “.919”.
Regarding `CCCCCCCCCCCCCCC=COCC(O)COP(=O)([O-])OCC[N+](C)(C)C` (stereo not drawn) [1-(1-enyl-palmitoyl)-GPC (P-16:0)], the “Fold of Change KO/WT” value is given as 1.59, the “Mean value KO” value is listed as 1.26 and the “Mean value WT” value was “.795”.
As for `CCCCCCCCCCCCCC/C=C\OC[C@@H](O)COP(=O)(O)OCCN` [1-(1-enyl-palmitoyl)-GPE (P-16:0)], the “Fold of Change KO/WT” value is on record as 1.79, the “Mean value KO” value stood at 1.30 and the “Mean value WT” value is given as “.725”.
For the compound `CCCCC/C=C\C/C=C\C/C=C\C/C=C\CCCC(=O)O[C@H](CO/C=C\CCCCCCCCCCCCCCCC)COP(=O)(O)OCCN` [1-(1-enyl-stearoyl)-2-arachidonoyl-GPE (P-18:0/20:4)], the “Fold of Change KO/WT” value is 1.33, the “Mean value KO” value is given as 1.10 and the “Mean value WT” value is listed as “.828”.
With `CCCCCCCCCCCCCCCC/C=C\OC[C@@H](O)COP(=O)(O)OCCN` [1-(1-enyl-stearoyl)-GPE (P-18:0)], the “Fold of Change KO/WT” value was determined as 1.72, the “Mean value KO” value stood at 1.28 and the “Mean value WT” value is “.747”.
The like results for `CCCCC/C=C\C/C=C\C/C=C\C/C=C\CCCC(=O)OC[C@@H](O)COP(=O)(O)O` [1-arachidonoyl-GPA (20:4)] were, in that order, 1.80, 1.17 and “.652”.
Take `CCCCC/C=C\C/C=C\C/C=C\C/C=C\CCCC(=O)OC[C@@H](O)COP(=O)([O-])OCC[N+](C)(C)C` [1-arachidonoyl-GPC (20:4n6)]: the “Fold of Change KO/WT” value is 1.63, the “Mean value KO” value is on record as 1.27 and the “Mean value WT” value was “.775”.
With `CCCCC/C=C\C/C=C\C/C=C\C/C=C\CCCC(=O)OC[C@@H](O)COP(=O)(O)OCCN` [1-arachidonoyl-GPE (20:4n6)], the “Fold of Change KO/WT” value amounted to 1.49, the “Mean value KO” value is 1.20 and the “Mean value WT” value was “.803”.
The matching figures for `CCCCC/C=C\C/C=C\C/C=C\C/C=C\CCCC(=O)OC[C@@H](O)COP(=O)(O)OC1C(O)C(O)C(O)C(O)C1O` (stereo partly drawn) [1-arachidonoyl-GPI (20:4)]: 1.48, 1.11 and “.754”.
In the case of `CCCCCCCCCCCCCCCCCCCCCCCC(=O)OC[C@@H](O)COP(=O)([O-])OCC[N+](C)(C)C` [1-lignoceroyl-GPC (24:0)], the “Fold of Change KO/WT” value is 1.36, the “Mean value KO” value was determined as 1.16 and the “Mean value WT” value was “.847”.
Turning to `CC/C=C\C/C=C\C/C=C\CCCCCCCC(=O)OC[C@@H](O)COP(=O)([O-])OCC[N+](C)(C)C` [1-linolenoyl-GPC (18:3)], the “Fold of Change KO/WT” value was found to be 2.13, the “Mean value KO” value is given as 1.41 and the “Mean value WT” value is “.661”.
In the case of `CCCCC/C=C\C/C=C\C/C=C\C/C=C\CCCC(=O)O[C@H](COC(=O)CCCCCCC/C=C\C/C=C\CCCCC)COP(=O)([O-])OCC[N+](C)(C)C` [1-linoleoyl-2-arachidonoyl-GPC (18:2/20:4n6)], the “Fold of Change KO/WT” value is 1.36, the “Mean value KO” value amounted to 1.15 and the “Mean value WT” value is “.846”.
Regarding `CCCCC/C=C\C/C=C\C/C=C\C/C=C\CCCC(=O)O[C@H](COC(=O)CCCCCCC/C=C\C/C=C\CCCCC)COP(=O)(O)OCCN` [1-linoleoyl-2-arachidonoyl-GPE (18:2/20:4)], the “Fold of Change KO/WT” value was 1.48, the “Mean value KO” value worked out at 1.26 and the “Mean value WT” value is on record as “.854”.
Consider `CC/C=C\C/C=C\C/C=C\CCCCCCCC(=O)O[C@H](COC(=O)CCCCCCC/C=C\C/C=C\CCCCC)COP(=O)([O-])OCC[N+](C)(C)C` [1-linoleoyl-2-linolenoyl-GPC (18:2/18:3)], for which the “Fold of Change KO/WT” value worked out at 1.51, the “Mean value KO” value worked out at 1.40 and the “Mean value WT” value was “.923”.
`CCCCC/C=C\C/C=C\CCCCCCCC(=O)OC[C@@H](O)COP(=O)(O)O` [1-linoleoyl-GPA (18:2)]: the “Fold of Change KO/WT” value is recorded as 2.36, the “Mean value KO” value was found to be 1.41 and the “Mean value WT” value is on record as “.595”.
With `CCCCC/C=C\C/C=C\CCCCCCCC(=O)OC[C@@H](O)COP(=O)([O-])OCC[N+](C)(C)C` [1-linoleoyl-GPC (18:2)], the “Fold of Change KO/WT” value came out at 1.62, the “Mean value KO” value was 1.22 and the “Mean value WT” value was “.752”.
Turning to `CCCCC/C=C\C/C=C\CCCCCCCC(=O)OC[C@@H](O)COP(=O)(O)OCCN` [1-linoleoyl-GPE (18:2)], the “Fold of Change KO/WT” value worked out at 1.94, the “Mean value KO” value is 1.42 and the “Mean value WT” value was “.736”.
Turning to `CCCCCC=CCC=CCCCCCCCC(=O)OCC(O)COP(=O)(O)OCC(O)CO` (stereo not drawn) [1-linoleoyl-GPG (18:2)], the “Fold of Change KO/WT” value was 3.71, the “Mean value KO” value came to 1.96 and the “Mean value WT” value is reported as “.529”.
The matching figures for `CCCCC/C=C\C/C=C\CCCCCCCC(=O)OC[C@@H](O)COP(=O)(O)OC1[C@H](O)[C@H](O)C(O)[C@H](O)[C@H]1O` (stereo partly drawn) [1-linoleoyl-GPI (18:2)]: 1.65, 1.27 and “.765”.
The matching figures for `CCCCC/C=C\C/C=C\C/C=C\C/C=C\CCCC(=O)O[C@H](COC(=O)CCCCCCC/C=C\CCCCCCCC)COP(=O)(O)OC1C(O)C(O)C(O)C(O)C1O` (stereo partly drawn) [1-oleoyl-2-arachidonoyl-GPI (18:1/20:4)]: 2.01, 1.37 and “.681”.
Take `CC/C=C\C/C=C\C/C=C\C/C=C\C/C=C\C/C=C\CCC(=O)O[C@H](COC(=O)CCCCCCC/C=C\CCCCCCCC)COP(=O)([O-])OCC[N+](C)(C)C` [1-oleoyl-2-docosahexaenoyl-GPC (18:1/22:6)]: the “Fold of Change KO/WT” value came to 1.34, the “Mean value KO” value is 1.17 and the “Mean value WT” value is “.874”.
For the compound `CCCCCCCC/C=C\CCCCCCCC(=O)OC[C@@H](O)COP(=O)([O-])OCC[N+](C)(C)C` [1-oleoyl-GPC (18:1)], the “Fold of Change KO/WT” value was determined as 1.78, the “Mean value KO” value was found to be 1.30 and the “Mean value WT” value is recorded as “.732”.
